Among the data in US10336684B2, “Phenyl-(aza)cycloalkyl carboxylic acid GPR120 modulators” (BRISTOL-MYERS SQUIBB COMPANY, priority 2014, dated 2019) are EC50 values, retold here.

Structures are written as SMILES.

Sequence of human GPR120 (Q5NUL3 whole entry): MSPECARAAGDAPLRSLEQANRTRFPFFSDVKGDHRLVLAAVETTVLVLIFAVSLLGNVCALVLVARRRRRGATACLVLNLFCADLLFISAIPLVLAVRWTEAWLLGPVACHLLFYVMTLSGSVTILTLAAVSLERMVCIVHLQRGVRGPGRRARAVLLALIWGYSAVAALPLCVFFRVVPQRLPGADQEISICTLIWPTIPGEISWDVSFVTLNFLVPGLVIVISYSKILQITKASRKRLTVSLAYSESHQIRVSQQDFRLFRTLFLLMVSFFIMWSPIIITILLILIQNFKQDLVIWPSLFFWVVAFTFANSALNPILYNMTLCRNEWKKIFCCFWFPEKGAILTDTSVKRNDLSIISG

The target in this assay is human GPR120 (Homo sapiens (Human), UniProt Q5NUL3). Briefly: GPR120 pERK AlphaScreen SureFire assay (human GPR120 pERK assay). Type of assay: cell-based. The settings on record: CHOA12 or CHO-K1 cells stably transfected with short form of human GPR120, 100% = 50 μM linolenic acid. The text has this:
GPR120 activity was monitored by measuring phosphorylation of ERK (pERK), since G protein receptors are known to activate the ERK signaling cascade either directly and/or through recruitment of arrestin that serves as a scaffold for downstream signaling events.
GPR120 pERK AlphaScreen SureFire Assay
The human and mouse GPR120-mediated intracellular phosphorylated ERK assays were established using CHOA12 cells stably transfected with the short form of human or mouse GPR120 receptor. Cells were cultured in growth medium consisting of F-12 media (Invitrogen Cat. #11765) with 5% Charcoal/Dextran FBS (Invitrogen Cat. #12676-029), 500 μg/mL GENETICIN® (Life Technologies Cat. #10131-027) and 250 μg/mL Zeocin (Invitrogen Cat. #R250-01). Cells were cryo preserved at a concentration of 2×10^7 cells/mL, in 90% Charcoal/Dextran FBS and 10% DMSO, and frozen in liquid nitrogen at a low passage number.
For the pERK assay, 2×10^7 cells/mL cryopreserved human and mouse cells were thawed rapidly in a 37° C. water bath and added to a T-225 flask containing 50 mL growth medium. The flasks were placed in a tissue culture incubator overnight (37° C., 5% CO2). The next day, cells were harvested with trypsin (Gibco Cat. #25300-054), resuspended in serum-containing growth medium and counted using a Cellometer and volume adjusted to a concentration of 0.6×10^6 cells/mL. Cells were plated into 384-well clear bottom tissue culture plates (BD Cat. #353962) at 50 μL/well, for a density of 30,000 cells/well using a MULTIDROP® and incubated for 16-18 hours (overnight) at 37° C. with 5% CO2. The next day, cells were serum starved in 30 μL of F-12 media without any serum or antibiotics for 2 hours at 37° C.
Test compounds were 3-fold, 11-point serially diluted in DMSO in a REMP assay plate (Matrix Cat. #4307) by Tecan and 5 μL was transferred into an ECHO source plate (Labcyte Cat. #LC-0200). Cells were then stimulated with 50 nL of compound dilutions using ECHO liquid handler for 7 minutes at 37° C. Compounds ranged from final assay concentrations of 33.33 μM to 0.56 nM.
The media was then dumped and cells lysed with 20 μL of 1× Lysis buffer from the AlphaScreen SureFire Phospho-ERK 1/2 Kit (Perkin Elmer Cat. #6760617M). The lysis buffer was diluted 5-fold with water before use. The plate was agitated on a shaker for 10 minutes after which 2 μL was transferred into a 384-well white proxiplate (Perkin Elmer Cat. #6008289). The SureFire assay reagent mix was prepared by mixing 60 parts Reaction Buffer, 10 parts Activation Buffer, 1 part Donor Beads, 1 part Acceptor Beads (Perkin Elmer Cat. #TGRES10K). 3.5 μL/well of this reagent mix was manually added to the proxiplate with a multichannel pipettor. Plates were spun down at 1000 rpm for 2 minutes, followed by light-protected incubation at room temperature for 2 hours. The plates were read on the Alpha-technology compatible Envision multilabel plate reader using AlphaScreen protocol according to manufacturer's specifications. The agonist effect of compounds was expressed as 100×(average sample-average blank)/(average total−average blank) where sample is the luminescence activity in the presence of test compound, blank is equal to the luminescence activity in the presence of DMSO control and the total is signal induced by 50 μM linolenic acid as reference compound. Activation data for the test compound over a range of concentrations was plotted as percentage activation of the test compound (100%=maximum response). After correcting for background, EC50 values were determined. The EC50 is defined as the concentration of test compound which produces 50% of the maximal response and was quantified using the 4 parameter logistic equation to fit the data.
The human and mouse GPR120-mediated intracellular phosphorylated ERK assays were also established using CHO-K1 cells stably transfected with the short form of human or mouse GPR120 receptor. […]
(Bead proximity is the source of the signal in Alpha formats.)
Consider `O=C(O)CCCCc1ccc(C2CCCCC(Oc3ccccc3Cl)C2)cc1` (stereo not drawn) [Example 46], for which the EC50 stood at 3.12 µM.
Turning to `CC(C)OC1CCC(c2ccc(CCCCC(=O)O)cc2)C1` (stereo not drawn) [Example 47], the EC50 came out at 3.77 µM.
On to `O=C(O)[C@H]1C[C@@H]1CCc1ccc(N2CCC[C@@H](Oc3ccccc3)C2)cc1` [Example 48], for which the EC50 worked out at 3.22 µM.
In turn, `O=C(O)[C@H]1C[C@@H]1CCc1ccc(N2CCC[C@H](Oc3ccccc3)C2)cc1` [Example 49] came in with an EC50 of 1.31 µM. This EC50 is about 2.5-fold lower than that of the molecule before.
As for `O=C(O)[C@@H]1C[C@H]1CCc1ccc(N2CCC[C@@H](Oc3ccccc3)C2)cc1` [Example 50], a half-maximal response (EC50) required 0.41 µM.
Under `O=C(O)[C@@H]1C[C@H]1CCc1ccc(N2CCC[C@H](Oc3ccccc3)C2)cc1` [Example 51] stands 1.9 µM.
Under `O=C(O)[C@@H]1C[C@H]1CCc1ccc(N2CCC[C@H](Oc3ccc(F)cc3)C2)cc1` [Example 52] stands 1.54 µM.
`O=C(O)[C@H]1C[C@@H]1CCc1ccc(N2CCC[C@@H](c3ccccc3)C2)cc1` [Example 53] yielded an EC50 of 3.61 µM.
Under `O=C(O)[C@H]1C[C@@H]1CCc1ccc(N2CCC[C@H](c3ccccc3)C2)cc1` [Example 54] stands 1.34 µM; under `O=C(O)[C@@H]1C[C@H]1CCc1ccc(N2CCC[C@@H](c3ccccc3)C2)cc1` [Example 55], 6.26 µM; under `O=C(O)[C@@H]1C[C@H]1CCc1ccc(N2CCC[C@H](c3ccccc3)C2)cc1` [Example 56], 4.84 µM.
As for `O=C(O)COCCc1ccc(N2CCCC(c3ccccc3)C2)cc1` (stereo not drawn) [Example 57], the figure is 2.26 µM; as for `O=C(O)CCCCc1ccc(N2CCC(Oc3ccccc3)CC2)cc1` [Example 58], 4.09 µM; as for `O=C(O)COCCc1ccc(N2CCC(Oc3ccccc3)C2)cc1` (stereo not drawn) [Example 59], 5.27 µM.
Molecule `O=C(O)CCCCc1ccc(N2CC[C@H](Oc3ccccc3)C2)cc1` [Example 60] yielded an EC50 of 0.22 µM.
Under `O=C(O)CCCCc1ccc(N2CC[C@@H](Oc3ccccc3)C2)cc1` [Example 61] stands 3.38 µM; under `O=C(O)[C@@H]1C[C@H]1CCc1ccc(N2CCCC(Oc3ccccc3)CC2)cc1` (stereo partly drawn) [Example 62], 10.3 µM; under `O=C(O)COCCc1ccc(N2CC(Oc3ccccc3)C2)cc1` [Example 63], 4.32 µM.

For orientation: EC50 means the concentration giving half of the maximal effect. A low value points to higher potency in that assay.
